The values that follow come from patent US20110245284A1, “Alkoxy- and Alkylthio-Substituted Anilinopyrimidines” (Bayer CropScience AG, priority 2008, published 2011).

Data set [1] can be described thus: logP by LC-MS on reversed-phase columns (C 18), method [b], acidic range pH 2.7. The settings on record: for chromatographic logP: pH 2.7, log p. The data set is classed as physicochemical. As for the experimental part:
(§1) The logP values were determined in accordance with EEC Directive 79/831 Annex V.A8 by HPLC (High Performance Liquid Chromatography) on reversed-phase columns (C 18), using the methods below:
[b] The LC-MS determination in the acidic range is carried out at pH 2.7 using the mobile phases 0.1% aqueous formic acid and acetonitrile (contains 0.1% formic acid), linear gradient from 10% acetonitrile to 95% acetonitrile.

Data set [2] has as its system Sphaerotheca fuliginea. Briefly: Sphaerotheca test (cucumber) / protective. It counts as in vivo. To be noted: Podosphaera fuliginea, 168 h, active compound concentration 500 ppm, evaluation 7 days after inoculation, read-out: efficacy. How it is done:
The plants are subsequently placed in a greenhouse at 70% relative atmospheric humidity and a temperature of 23° C.

Data set [3] has as its system Leptosphaeria nodorum. Description: Leptosphaeria nodorum test (wheat) / protective. To be noted: Parastagonospora nodorum, active compound concentration 500 ppm, evaluation 7-9 days after inoculation, read-out: efficacy. It counts as in vivo. How it is done: Thereafter, the plants are placed in a greenhouse at 90% relative atmospheric humidity and a temperature of 22° C.

The nature of data set [4]: logP by LC-MS on reversed-phase columns (C 18), method [c], neutral range pH 7.8. It counts as physicochemical. How it is done: as §1
[c] The LC-MS determination in the neutral range is carried out at pH 7.8 using the mobile phases 0.001 molar aqueous ammonium bicarbonate solution and acetonitrile, linear gradient from 10% acetonitrile to 95% acetonitrile.

In data set [5] the test system is Pyricularia oryzae. Description: whole plant or invertebrate. It counts as in vivo. To be noted: 120 h, read-out: efficacy.

Structures are written as SMILES.

In the case of `CSC(C)c1cccc(Nc2ncc(C(F)(F)F)c(NC3CCC3)n2)c1` (stereo not drawn) [Example 18], the chromatographic logP in data set [1] was 4.34. The pest or weed control at 500 ppm in data set [2] and in data set [3] was at least 70% throughout.

`CCN(C)c1nc(Nc2cccc(COC)c2)ncc1Cl` [Example 85]: the chromatographic logP in data set [1] came to 2.14; in data set [4] (pH 7.8), 3.7. For the same molecule, the pest or weed control at 500 ppm in data set [2] and in data set [3] was at least 70% in each case.

`CCCC[S+]([O-])c1cccc(Nc2ncc(C(F)(F)F)c(NC3CCC3)n2)c1` (stereo not drawn) [Example 203]: the results for the chromatographic logP in data set [1] and in data set [4] (pH 7.8) were 3.4 and 3.67, respectively. Further, the pest or weed control at 500 ppm in data set [2] and in data set [3] was at least 70% throughout.

Turning to `CCC(C)Sc1cccc(Nc2ncc(C(F)(F)F)c(NC3CC3)n2)c1` (stereo not drawn) [Example 188], the chromatographic logP in data set [1] stood at 4.9; in data set [4] (pH 7.8) it was 5.01. Moreover, in data set [3], the pest or weed control at 500 ppm was at least 70%.

The molecule `COCc1cccc(Nc2ncc(Cl)c(NCC(F)F)n2)c1` [Example 22] returned a chromatographic logP in data set [1] of 1.99. Also, the pest or weed control at 500 ppm in data set [2] and in data set [3] was at least 70% each time.

For the molecule `CCS(=O)(=O)C(C)c1cccc(Nc2ncc(Cl)c(NC(C)C)n2)c1` (stereo not drawn) [Example 150], the chromatographic logP in data set [1] worked out at 1.65; in data set [4] (pH 7.8), 2.89. In addition, the pest or weed control at 500 ppm in data set [2] and in data set [3] was at least 70% each time.

Turning to `CCCCS(=O)(=O)c1cccc(Nc2ncc(Cl)c(NC3CCC3)n2)c1` [Example 170], the chromatographic logP in data set [1] was found to be 3.09; in data set [4] (pH 7.8), 3.69. Moreover, the pest or weed control at 500 ppm in data set [3] was at least 70%.

As for `COC(C)c1cccc(Nc2ncc(Cl)c(NC3CC3C)n2)c1` (stereo not drawn) [Example 228], the chromatographic logP in data set [1] turned out to be 0.95. For the same molecule, the pest or weed control at 500 ppm in data set [2] and in data set [3] was at least 70% in each case.

As for `CCSC(CC)c1cccc(Nc2ncc(Cl)c(NC3CC3)n2)c1` (stereo not drawn) [Example 115], the chromatographic logP came out at 3.33 in data set [1] and 4.69 in data set [4] (pH 7.8). The pest or weed control at 500 ppm in data set [2] and in data set [3] was at least 70% throughout.

As to `CCC(C)[S+]([O-])C(C)c1cccc(Nc2ncc(C(F)(F)F)c(NC3CC3)n2)c1` (stereo not drawn) [Example 160], the chromatographic logP in data set [1] was 2.85; in data set [4] (pH 7.8) it was 3.11. In addition, the pest or weed control at 500 ppm in data set [2] and in data set [3] was at least 70% throughout.

With `CCCCSc1cccc(Nc2ncc(Br)c(NC3CCC3)n2)c1` [Example 104], the chromatographic logP in data set [1] was found to be 4.57; in data set [4] (pH 7.8), 5.71. The pest or weed control at 500 ppm in data set [3] was at least 70%.

Turning to `CCCCS(=O)(=O)c1cccc(Nc2ncc(C(F)(F)F)c(NC3CCC3)n2)c1` [Example 202], the chromatographic logP in data set [1] amounted to 3.91; in data set [4] (pH 7.8), 4.01. Also, the pest or weed control at 500 ppm in data set [3] is at least 70%.

As to `CCCSc1cccc(Nc2ncc(C(F)(F)F)c(NC3CC3C)n2)c1` (stereo not drawn) [Example 235], the chromatographic logP in data set [1] is 4.9; in data set [4] (pH 7.8) it was 5.23. The pest or weed control at 500 ppm in data set [3] is at least 70%.

As to `CC[S+]([O-])C(C)c1cccc(Nc2ncc(Cl)c(NC3CC3)n2)c1` (stereo not drawn) [Example 74], the values for the chromatographic logP in data set [1] and in data set [4] (pH 7.8) were 1.48 and 2.16, respectively. Also, in data set [3], the pest or weed control at 500 ppm is at least 70%.

Regarding `CCC(C)S(=O)(=O)C(C)c1cccc(Nc2ncc(C(F)(F)F)c(NC3CC3)n2)c1` (stereo not drawn) [Example 187], the chromatographic logP in data set [1] turned out to be 3.14; in data set [4] (pH 7.8), 3.34. Besides, the pest or weed control at 500 ppm in data set [2] and in data set [3] was at least 70% throughout.

As to `CCCCS(=O)(=O)c1cccc(Nc2ncc(Cl)c(NC3CC3)n2)c1` [Example 123], the results for the chromatographic logP in data set [1] and in data set [4] (pH 7.8) were 2.65 and 3.18, respectively. In addition, the pest or weed control at 500 ppm in data set [3] was at least 70%.

With `CCCSc1cccc(Nc2ncc(Cl)c(NCC(F)(F)F)n2)c1` [Example 30], in data set [1], the chromatographic logP came out at 4.08. In addition, the pest or weed control at 500 ppm in data set [2] is at least 70%.

With `CCSc1cccc(Nc2ncc(C(F)(F)F)c(NC3CC(C)C3)n2)c1` (stereo not drawn) [Example 234], the chromatographic logP amounted to 4.09 in data set [1] and 5.34 in data set [4] (pH 7.8). Moreover, the pest or weed control at 500 ppm in data set [3] was at least 70%.

As to `CCSCc1cccc(Nc2ncc(Cl)c(NC3CCC3)n2)c1` [Example 219], the chromatographic logP came out at 3 in data set [1] and 4.44 in data set [4] (pH 7.8). Moreover, the pest or weed control at 500 ppm in data set [2] and in data set [3] was at least 70% in each case.

Turning to `CC(C)CS(=O)(=O)c1cccc(Nc2ncc(Cl)c(NC3CC3)n2)c1` [Example 161], the results for the chromatographic logP in data set [1] and in data set [4] (pH 7.8) were 2.64 and 3.23, respectively. Moreover, the pest or weed control at 500 ppm in data set [3] was at least 70%.

`CCCS(=O)(=O)c1cccc(Nc2ncc(Br)c(NC3CC3)n2)c1` [Example 110]: the values for the chromatographic logP in data set [1] and in data set [4] (pH 7.8) were 2.43 and 2.99, respectively. For the same molecule, the pest or weed control at 500 ppm in data set [3] was at least 70%.

Turning to `CCCC(C)S(=O)(=O)C(C)c1cccc(Nc2ncc(Cl)c(NC3CC3)n2)c1` (stereo not drawn) [Example 165], the log p is 2.48[b] in data set [1] (pH 2.7) and 3.56[c]; in data set [4] (pH 7.8).

Take `CCCSc1ccc(Nc2ncc(Cl)c(NC3CC3)n2)cc1` [Example 96]: in data set [1], the chromatographic logP stood at 3.09. For the same molecule, the pest or weed control at 500 ppm in data set [3] was at least 70%. For the same molecule, the pest or weed control at 250 ppm in data set [5] is at least 80%.

In the case of `COCc1cccc(Nc2ncc(Cl)c(N(C)C3CC3C)n2)c1` (stereo not drawn) [Example 199], the results for the chromatographic logP in data set [1] and in data set [4] (pH 7.8) were 3.23 and 4.36, respectively. Besides, the pest or weed control at 500 ppm in data set [2] and in data set [3] was at least 70% throughout.

Consider `COCCOc1ccc(Nc2ncc(C(F)(F)F)c(NC3CC3)n2)cc1F` [Example 81], for which the results for the log p in data set [1] (pH 2.7) and in data set [4] (pH 7.8) were 2.89[b] and 3.27[c];, respectively.

Take `CCSC(C)c1cccc(Nc2ncc(Cl)c(NC3CCC3C)n2)c1` (stereo not drawn) [Example 259]: the chromatographic logP in data set [1] turned out to be 3.59; in data set [4] (pH 7.8) it was 5.3.

Consider `CCCSc1cccc(Nc2ncc(C(F)(F)F)c(NC3CCC3)n2)c1` [Example 155], for which the chromatographic logP in data set [1] is 5.01; in data set [4] (pH 7.8), 5.43. The pest or weed control at 500 ppm in data set [3] was at least 70%.

In the case of `CC[S+]([O-])c1cccc(Nc2ncc(C(F)(F)F)c(NC3CCC3C)n2)c1` (stereo not drawn) [Example 244], the chromatographic logP in data set [1] was found to be 2.9; in data set [4] (pH 7.8) it was 3.3.

As for `CCCCSc1cccc(Nc2ncc(C(F)(F)F)c(NC3CCC3)n2)c1` [Example 128], the chromatographic logP in data set [1] was 5.55; in data set [4] (pH 7.8), 5.78. Further, the pest or weed control at 500 ppm in data set [3] is at least 70%.

On to `CCCC(C)[S+]([O-])C(C)c1cccc(Nc2ncc(Cl)c(NC3CC3)n2)c1` (stereo not drawn) [Example 166], for which the figures for the log p in data set [1] (pH 2.7) and in data set [4] (pH 7.8) were 2.2[b] and 3.1[c];, respectively.

As for `CCCC(C)SC(C)c1cccc(Nc2ncc(C(F)(F)F)c(NC3CC3)n2)c1` (stereo not drawn) [Example 135], the values for the log p in data set [1] (pH 2.7) and in data set [4] (pH 7.8) were 5.53[b] and 5.8[c];, respectively.

Consider `CCSCc1cccc(Nc2ncc(Br)c(NC3CC3)n2)c1` [Example 218], for which, in data set [1], the chromatographic logP was found to be 2.79. Besides, the pest or weed control at 500 ppm in data set [2] and in data set [3] was at least 70% throughout.

Regarding `CCOCCSc1cccc(Nc2ncc(Cl)c(NC3CC3)n2)c1` [Example 189], the chromatographic logP in data set [1] came out at 2.7; in data set [4] (pH 7.8) it was 3.76. The pest or weed control at 500 ppm in data set [3] was at least 70%.

On to `COCCOc1cccc(Nc2ncc(Br)c(NC3CC3)n2)c1` [Example 67], for which the chromatographic logP in data set [1] was determined as 1.95. For the same molecule, the pest or weed control at 500 ppm in data set [2] and in data set [3] was at least 70% each time.

Take `COC(C)c1cccc(Nc2ncc(Cl)c(NC(C)C3(Cl)CC3)n2)c1` (stereo not drawn) [Example 130]: the log p in data set [1] (pH 2.7) is 3.72[b]; in data set [4] (pH 7.8), 4.65[c];.

`CCCNc1nc(Nc2cccc(COC)c2)ncc1Cl` [Example 149] registered a chromatographic logP in data set [1] of 1.72. Also, the pest or weed control at 500 ppm in data set [2] and in data set [3] was at least 70% in each case.

In data set [1], `COCC(=O)c1cccc(Nc2ncc(C(F)(F)F)c(NC3CC3)n2)c1` [Example 225] yielded a chromatographic logP of 2.54. Further, the pest or weed control at 500 ppm in data set [2] and in data set [3] was at least 70% throughout.

`CCSCc1cccc(Nc2ncc(Cl)c(NCC(F)(F)F)n2)c1` [Example 32] came in with a chromatographic logP in data set [1] of 3.49. For the same molecule, the pest or weed control at 500 ppm in data set [2] is at least 70%.

Turning to `COC(C)c1cccc(Nc2ncc(C(F)(F)F)c(NC3CC3C)n2)c1` (stereo not drawn) [Example 229], the figures for the chromatographic logP in data set [1] and in data set [4] (pH 7.8) were 3.61 and 4.1, respectively. In data set [3], the pest or weed control at 500 ppm is at least 70%.

As for `COCc1cccc(Nc2ncc(Br)c(NC3CC3C)n2)c1` (stereo not drawn) [Example 84], the log p in data set [1] (method [b], LC-MS, acidic range pH 2.7) was 2.15[b]; in data set [4] (method [c], LC-MS, neutral range pH 7.8) it was 3.59[c];.

For `COCc1cccc(Nc2ncc(Cl)c(NCC(C)C)n2)c1` [Example 148], the chromatographic logP in data set [1] was 2.08. For the same molecule, the pest or weed control at 500 ppm in data set [2] and in data set [3] was at least 70% in each case.

For `COCCOC(c1cccc(Nc2ncc(C(F)(F)F)c(NC3CC3)n2)c1)C(F)(F)F` (stereo not drawn) [Example 216], the log p in data set [1] (pH 2.7) was 3.72[b]; in data set [4] (pH 7.8), 3.9[c];.
